Data reported in patent US8933113B2 (Merck Sharp & Dohme Corp., priority 2011, dated 2015).

Target: T1, full-length human Mineralocorticoid Receptor (MR) (Homo sapiens, UniProt P08235)
T1 construct: host or cells: PathHunter CHO-K1 cells
T1 sequence (P08235 1-984): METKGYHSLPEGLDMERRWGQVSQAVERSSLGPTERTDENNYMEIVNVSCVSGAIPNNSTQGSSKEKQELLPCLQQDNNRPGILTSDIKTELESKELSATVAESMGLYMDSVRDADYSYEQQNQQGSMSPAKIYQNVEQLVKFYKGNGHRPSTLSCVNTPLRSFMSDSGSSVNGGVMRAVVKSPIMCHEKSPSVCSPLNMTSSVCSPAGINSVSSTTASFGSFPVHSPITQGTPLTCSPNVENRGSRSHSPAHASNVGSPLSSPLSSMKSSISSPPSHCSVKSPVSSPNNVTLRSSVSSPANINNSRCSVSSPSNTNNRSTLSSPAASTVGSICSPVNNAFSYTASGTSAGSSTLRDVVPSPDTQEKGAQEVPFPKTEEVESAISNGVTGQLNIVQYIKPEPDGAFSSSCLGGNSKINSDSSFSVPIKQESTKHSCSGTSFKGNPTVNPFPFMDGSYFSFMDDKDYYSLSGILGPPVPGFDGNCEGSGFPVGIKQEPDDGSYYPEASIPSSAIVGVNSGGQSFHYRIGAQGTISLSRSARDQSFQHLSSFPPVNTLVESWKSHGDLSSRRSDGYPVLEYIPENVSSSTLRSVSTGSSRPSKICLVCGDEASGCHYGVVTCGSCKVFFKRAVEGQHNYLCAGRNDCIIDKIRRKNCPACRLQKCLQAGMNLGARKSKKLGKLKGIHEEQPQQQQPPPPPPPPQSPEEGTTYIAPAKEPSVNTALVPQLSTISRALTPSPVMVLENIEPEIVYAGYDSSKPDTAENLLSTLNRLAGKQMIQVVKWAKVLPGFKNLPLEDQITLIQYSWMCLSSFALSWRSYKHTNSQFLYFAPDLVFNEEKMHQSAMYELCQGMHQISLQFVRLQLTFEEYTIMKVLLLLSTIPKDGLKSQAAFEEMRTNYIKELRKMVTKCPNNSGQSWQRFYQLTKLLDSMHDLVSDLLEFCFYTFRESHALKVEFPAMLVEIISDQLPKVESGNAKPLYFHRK
Assay: human MR NH Pro assay (PathHunter Protein:Protein interaction assay), MR antagonist activity
Assay type: cell-based
Conditions: PathHunter CHO-K1 cells overexpressing human MR; aldosterone about 0.3 nM; 6 hours at 37° C.; luminescence; read-out: Primary Assay IP rating (IP = inflection point for a given dose-response titration curve)
Method in brief: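 PathHunter enzyme-complementation assay in cells of full-length human MR recruitment of a coactivator peptide, run in antagonist mode against aldosterone at about 0.3 to 1.0 nM final. Compounds are in a 10-point, 1:3 series from a 4.4 mM top. Incubation is 6 h at 37° C, then detection reagent for 1 h at RT, with a luminescence read-out.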

IC50: < 100 nM
Structure (SMILES): CCC(CCO)(c1ccc(Cl)cc1)n1ccc2c(NS(C)(=O)=O)cccc21 (single isomer, unassigned) [Compound 161, N-(1-(3-(4-Chlorophenyl)-1-hydroxypentan-3-yl)-1H-indol-4-yl)methanesulfonamide]
